Laboratory results taken from article PMC8671752, “Effects of ex vivo Extracorporeal Membrane Oxygenation Circuits on Sequestration of Antimicrobial Agents” (Frontiers in Medicine, 2021).
Marks after values point to notes of the source that are not given here. Positions of bridges follow the written chain, without caps; N, C: chain ends. Non-standard residues stand in square brackets, D forms with d. Residues, ends and D or L forms follow the SMILES beside them. *: point of attachment. X1 = CC[C@H](C)CCCCC(=O)*; Dab = NCC[C@H](N)C(=O)O

Legend:
[1] = critically ill patients; no reference given; cited from earlier work
[2] = cited from earlier work; for Lipophilicity (log P): ref DrugBank [12]
[3] = Control group: spontaneous drug degradation in whole blood at 37°C; settings: HPLC-MS/MS; for Drug recovery (%) from control group at 24 h: controls of both experiments, whole human blood taken 2 min after injection, not passed through circuit, relative to 2 min baseline; for Drug recovery (%) from control group at 24 h / Drug recovery, Control-24 h (Sorin experiment) / Mean drug recovery, Control-24 h (Maquet experiment): water bath 37°C 24 h; for Drug recovery (%) from control group at 24 h / Mean drug recovery, Control-3 h (Maquet experiment) / Mean drug recovery, Control-6 h (Maquet experiment) / Mean drug recovery, Control-12 h (Maquet experiment) / Mean drug recovery, Control-24 h (Maquet experiment): mean (SD), SD; for Drug recovery, Control-3 h (Sorin experiment) / Drug recovery, Control-6 h (Sorin experiment) / Drug recovery, Control-24 h (Sorin experiment): control of Sorin experiment, single measurement; for Drug recovery, Control-3 h (Sorin experiment) / Drug recovery, Control-6 h (Sorin experiment) / Drug recovery, Control-24 h (Sorin experiment) / Mean drug recovery, Control-3 h (Maquet experiment) / Mean drug recovery, Control-6 h (Maquet experiment) / Mean drug recovery, Control-12 h (Maquet experiment) / Mean drug recovery, Control-24 h (Maquet experiment): whole human blood, no circuit, % of 2 min concentration; for Drug recovery, Control-3 h (Sorin experiment) / Mean drug recovery, Control-3 h (Maquet experiment): water bath 37°C 3 h; for Drug recovery, Control-6 h (Sorin experiment) / Mean drug recovery, Control-6 h (Maquet experiment): water bath 37°C 6 h; for Mean drug recovery, Control-3 h (Maquet experiment) / Mean drug recovery, Control-6 h (Maquet experiment) / Mean drug recovery, Control-12 h (Maquet experiment) / Mean drug recovery, Control-24 h (Maquet experiment): control of Maquet experiment, n=2; for Mean drug recovery, Control-12 h (Maquet experiment): water bath 37°C 12 h
[4] = Drug recovery in blood-primed ex vivo ECMO circuits (average of Maquet and Sorin); settings: for Drug recovery (%) from circuits at 24 h: average over Maquet and Sorin circuits, closed loop primed with fresh whole human blood, 37°C, pH 7.25–7.55, 4–5 L/min, plasma HPLC-MS/MS, relative to 2 min baseline, mean (SD), SD
Description: (§1) Four healthy volunteers were recruited. After obtaining informed consent, 402 ml of blood was collected through the cubitus vein using disposable blood bags (Fresenius Kabi), of which 2 ml was used for a routine blood examination. Sorin (LivaNova, London, United Kingdom) and Maquet (Getinge AB, Hirrlingen, Germany) ECMO circuits were used to establish self-circulation and were primed with fresh whole human blood. After the circulation stabilized, the drugs were added to the circuit. Blood samples were collected at different time points, and the drug concentration was measured to observe the recovery rate of different drugs in the ECMO cycle.
(§2) Each circuit consisted of a membrane oxygenator, centrifugal pump, cannula, heat exchanger, and PVC tubing. The materials of each ECMO component are shown in Supplementary Material 1. A reservoir bag containing 30 mL of blood was used to construct a bypass to maintain the pressure of the circuit (Figure 1). Eight hundred milliliters of fresh whole human blood (<1 h old) was used to prime the circuit. Heparin (5,000 U) was added to the circuits to prevent clotting.
(§3) The circuit flow rate was controlled at 4–5 L/min. Circuit temperature was maintained at 37°C.
(§4) These bolus doses were selected to produce concentrations similar to clinical concentrations. The order of administration was determined according to the half-life from long to short. According to the drug instructions, none of the drugs interact with each other ([12]). Two milliliters of physiological saline solution (0.9%) was used to flush the tube after injection of all drugs to avoid drug loss at the entrance of administration.

[5] = ref DrugBank [12]; cited from earlier work
[6] = ex vivo experiment by Shekar et al.; cited from earlier work
[7] = Drug recovery in the Sorin ECMO circuit; settings: phosphorylcholine-coated circuit, whole human blood, 37°C, HPLC-MS/MS, % of 2 min concentration, single measurement
Description: as §1, §2, §3, §4
(§5) In this study, two experiments were carried out and 26 blood samples were analyzed. The first experiment was conducted with the Maquet ECMO circuit. […] The blood samples collected at each time point were measured twice due to the uncertainty of the initial experiment.

[8] = Drug recovery in the Maquet ECMO circuit; settings: Bioline-coated circuit, whole human blood, 37°C, HPLC-MS/MS, % of 2 min concentration, mean (SD), n=2
Description: as §1, §2, §3, §4, §5

For CN(C)c1cc(NC(=O)CNC(C)(C)C)c(O)c2c1C[C@H]1C[C@H]3[C@H](N(C)C)C(O)=C(C(N)=O)C(=O)[C@@]3(O)C(O)=C1C2=O [Tigecycline, tigecycline], the “Average Vd in critically ill patients” value [1] is listed as 398 L, the “Lipophilicity (log P)” value [2] is listed as 0.8 and the “Drug recovery (%) from control group at 24 h” value [3] is listed as 144.54 (2.31) %. For the same compound, the “Drug recovery (%) from circuits at 24 h” value [4] was 100.03 (13.68) %.
In the case of CC(C)c1cccc(C(C)C)c1O [propofol], the “octanol/water partition (log P)” value [2] is listed as 4.0.
For CC[C@H](C)C[C@H](C)CCCCCCCCC(=O)N[C@H]1C[C@@H](O)[C@@H](NCCN)NC(=O)[C@@H]2[C@@H](O)CCN2C(=O)[C@H]([C@H](O)CCN)NC(=O)[C@H]([C@H](O)[C@@H](O)c2ccc(O)cc2)NC(=O)[C@@H]2C[C@@H](O)CN2C(=O)[C@H]([C@@H](C)O)NC1=O [Caspofungin, caspofungin], the “Protein binding rate (%)” value [5] is given as 97%, the “Lipophilicity (log P)” value [2] is given as −2.798 and the “Drug recovery (%) from control group at 24 h” value [3] is given as 85.24 (7.93) %. The “Drug recovery (%) from circuits at 24 h” value [4] was 83.26 (6.17) % and the “Average drug recovery at 24 h in the ECMO circuit” value [6] was 56%.
For CC[C@H](C)CCCCC(=O)N[C@@H](CCN)C(=O)N[C@H](C(=O)N[C@@H](CCN)C(=O)N[C@H]1CCNC(=O)[C@H]([C@@H](C)O)NC(=O)[C@H](CCN)NC(=O)[C@H](CCN)NC(=O)[C@H](CC(C)C)NC(=O)[C@@H](Cc2ccccc2)NC(=O)[C@H](CCN)NC1=O)[C@@H](C)O [Polymyxin B, polymyxin B] (X1-[Dab]T[Dab][Dab][Dab][dF]L[Dab][Dab]T; lactam 4-C), the “Protein binding rate (%)” value [5] is given as 79–92%, the “Lipophilicity (log P)” value [2] is given as −4.861 and the “Drug recovery, Sorin circuit, 5 min” value [7] is given as 118%. The “Drug recovery, Sorin circuit, 15 min” value [7] was 86%, the “Drug recovery, Sorin circuit, 30 min” value [7] was 84% and the “Drug recovery, Sorin circuit, 3 h” value [7] was 117%. The “Drug recovery, Sorin circuit, 6 h” value [7] was 74%, the “Drug recovery, Sorin circuit, 12 h” value [7] was 74% and the “Drug recovery, Sorin circuit, 24 h” value [7] was 61.66 (-)^* %. For the same compound, the “Drug recovery, Control-3 h (Sorin experiment)” value [3] was 91%, the “Drug recovery, Control-6 h (Sorin experiment)” value [3] was 93% and the “Drug recovery, Control-24 h (Sorin experiment)” value [3] was 60.10 (-)^* %.
For C[C@@H](O)[C@H]1C(=O)N2C(C(=O)O)=C(S[C@@H]3CN[C@H](C(=O)N(C)C)C3)[C@H](C)[C@H]12 [Meropenem, meropenem], the “Lipophilicity (log P)” value [2] is given as −0.6, the “Mean drug recovery, Maquet circuit, 5 min” value [8] is given as 100% (0%) and the “Mean drug recovery, Maquet circuit, 15 min” value [8] is given as 100% (1%). The “Mean drug recovery, Maquet circuit, 30 min” value [8] was 101% (4%), the “Mean drug recovery, Maquet circuit, 1 h” value [8] was 98% (0%) and the “Mean drug recovery, Maquet circuit, 3 h” value [8] was 93% (2%). For the same compound, the “Mean drug recovery, Maquet circuit, 6 h” value [8] was 83% (7%), the “Mean drug recovery, Maquet circuit, 12 h” value [8] was 64% (2%) and the “Mean drug recovery, Maquet circuit, 24 h” value [8] was 45% (5%). The “Drug recovery, Sorin circuit, 3 h” value [7] was 100%, the “Drug recovery, Sorin circuit, 6 h” value [7] was 92% and the “Drug recovery, Sorin circuit, 12 h” value [7] was 74%. For the same compound, the “Drug recovery, Sorin circuit, 24 h” value [7] was 47%, the “Mean drug recovery, Control-3 h (Maquet experiment)” value [3] was 97% (4%) and the “Mean drug recovery, Control-6 h (Maquet experiment)” value [3] was 91% (9%). The “Mean drug recovery, Control-12 h (Maquet experiment)” value [3] was 77% (8%), the “Mean drug recovery, Control-24 h (Maquet experiment)” value [3] was 65% (10%) and the “Drug recovery, Control-3 h (Sorin experiment)” value [3] was 97%. For the same compound, the “Drug recovery, Control-6 h (Sorin experiment)” value [3] was 102%, the “Drug recovery, Control-24 h (Sorin experiment)” value [3] was 95% and the “Drug recovery (%) from control group at 24 h” value [3] was 74.84 (19.10) %. For the same compound, the “Drug recovery (%) from circuits at 24 h” value [4] was 45.37 (3.58) % and the “Average loss at 24 h in the circuits” value ([4]; loss, average of Maquet and Sorin circuits) was 55%.
For C[C@@H](c1ncncc1F)[C@](O)(Cn1cncn1)c1ccc(F)cc1F [Voriconazole, voriconazole], the “Lipophilicity (log P)” value [2] is listed as 2.561.
In the case of CCN1CCN(C(=O)N[C@@H](C(=O)N[C@@H]2C(=O)N3C(C(=O)O)=C(CSc4nnnn4C)CS[C@H]23)c2ccc(O)cc2)C(=O)C1=O [Cefoperazone, cefoperazone], the “Lipophilicity (log P)” value [2] is listed as −0.74, the “Mean drug recovery, Maquet circuit, 5 min” value [8] is listed as 102% (3%) and the “Mean drug recovery, Maquet circuit, 15 min” value [8] is listed as 100% (4%). For the same compound, the “Mean drug recovery, Maquet circuit, 30 min” value [8] was 100% (2%), the “Mean drug recovery, Maquet circuit, 1 h” value [8] was 102% (1%) and the “Mean drug recovery, Maquet circuit, 3 h” value [8] was 98% (2%). The “Mean drug recovery, Maquet circuit, 6 h” value [8] was 99% (1%), the “Mean drug recovery, Maquet circuit, 12 h” value [8] was 91% (5%) and the “Mean drug recovery, Maquet circuit, 24 h” value [8] was 81% (1%). For the same compound, the “Drug recovery, Sorin circuit, 5 min” value [7] was 100%, the “Drug recovery, Sorin circuit, 15 min” value [7] was 100% and the “Drug recovery, Sorin circuit, 30 min” value [7] was 99%. For the same compound, the “Drug recovery, Sorin circuit, 1 h” value ([7]; 1 h) was 102%, the “Drug recovery, Sorin circuit, 6 h” value [7] was 98% and the “Drug recovery, Sorin circuit, 12 h” value [7] was 92%. The “Drug recovery, Sorin circuit, 24 h” value [7] was 75%, the “Mean drug recovery, Control-3 h (Maquet experiment)” value [3] was 100% (0%) and the “Mean drug recovery, Control-6 h (Maquet experiment)” value [3] was 99% (0%). For the same compound, the “Mean drug recovery, Control-12 h (Maquet experiment)” value [3] was 100% (2%), the “Mean drug recovery, Control-24 h (Maquet experiment)” value [3] was 98% (2%) and the “Drug recovery, Control-6 h (Sorin experiment)” value [3] was 98%. For the same compound, the “Drug recovery, Control-24 h (Sorin experiment)” value [3] was 98% and the “Drug recovery (%) from control group at 24 h” value [3] was 98.30 (1.17) %.
